Reference: PMC12486301 (The Journal of pharmacology and experimental therapeutics, 2025)
Where a name gives a salt, the structure may show the parent alone. Read-outs that look alike come from different tables or passages of the source.

How the values were obtained:
ENT1 = molecular target: T1, ENT1 (Homo sapiens, UniProt Q99808); test: Inhibition of [3H]uridine uptake into WT HeLa; format: cell-based; conditions: for inhibition at 20 µM: HeLa; for ENT1 % Inhibition (±SD): model-predicted compounds from MedChem Express Drug Repurposing Library
T1 sequence (Q99808 1-456): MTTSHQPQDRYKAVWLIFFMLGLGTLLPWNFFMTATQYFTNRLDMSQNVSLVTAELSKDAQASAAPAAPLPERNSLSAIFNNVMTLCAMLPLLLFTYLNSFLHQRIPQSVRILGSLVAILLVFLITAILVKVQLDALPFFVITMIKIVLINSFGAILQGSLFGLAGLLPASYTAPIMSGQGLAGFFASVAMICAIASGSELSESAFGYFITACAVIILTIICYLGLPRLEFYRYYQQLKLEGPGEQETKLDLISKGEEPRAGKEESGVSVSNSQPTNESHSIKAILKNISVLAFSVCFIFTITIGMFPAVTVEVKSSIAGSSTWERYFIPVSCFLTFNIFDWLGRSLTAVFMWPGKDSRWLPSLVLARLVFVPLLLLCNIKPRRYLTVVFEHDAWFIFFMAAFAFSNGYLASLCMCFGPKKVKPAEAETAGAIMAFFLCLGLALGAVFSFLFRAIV

ENT2 = molecular target: T2, ENT2 (Homo sapiens, UniProt Q14542); test: Inhibition of [3H]uridine uptake into HeLa FlpIn cells overexpressing hENT2; format: cell-based; conditions: for inhibition at 20 µM: HeLa, read-out: ENT2 % Inhibition (20μM); for ENT2 % Inhibition (20μM): 20 μM compound, 5 min [3H]uridine uptake, HeLa cells overexpressing hENT2
T2 sequence (Q14542 1-456): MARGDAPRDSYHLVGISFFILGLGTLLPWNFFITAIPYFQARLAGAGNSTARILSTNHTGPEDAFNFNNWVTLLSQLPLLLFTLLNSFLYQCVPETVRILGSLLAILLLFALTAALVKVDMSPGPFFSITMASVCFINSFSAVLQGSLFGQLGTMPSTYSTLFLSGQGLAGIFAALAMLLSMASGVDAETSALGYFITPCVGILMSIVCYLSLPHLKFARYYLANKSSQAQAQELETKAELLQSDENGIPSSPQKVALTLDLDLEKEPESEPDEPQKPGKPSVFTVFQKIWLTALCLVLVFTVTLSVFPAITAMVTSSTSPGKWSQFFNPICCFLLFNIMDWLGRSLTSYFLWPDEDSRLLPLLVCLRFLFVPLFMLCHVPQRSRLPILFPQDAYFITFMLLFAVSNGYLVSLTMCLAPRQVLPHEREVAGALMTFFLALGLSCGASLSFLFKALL

[1] = read-out: ENT1 % Inhibition (±SD)
[2] = read-out: ENT1 % Inhibition (20μM)

Cc1c(OCC(F)(F)F)ccnc1C[S@@+]([O-])c1nc2ccccc2[nH]1 [(R)-Lansoprazole]
inhibition at 20 µM (ENT1; [1]): 73.6%

C[C@]12CC[C@@H]3c4ccc(O)cc4CC[C@H]3[C@@H]1CC[C@H]2O [Alpha-Estradiol]
inhibition at 20 µM (ENT1; [1]): 77.2%

COc1cc(OC)c2c(=O)[nH]c(-c3cc(C)c(OCCO)c(C)c3)nc2c1 [Apabetalone]
inhibition at 20 µM (ENT1; [1]): 88.1%

COc1cc(C[C@H]2C(=O)OC[C@@H]2Cc2ccc(OC)c(OC)c2)ccc1O [Arctigenin]
inhibition at 20 µM (ENT1; [1]): 67.5%

CC[C@@H](C(=O)Nc1ccc(C(N)=O)c(F)c1)n1cc(OC)c(-c2cc(Cl)ccc2-n2cc(C(F)(F)F)nn2)cc1=O [Asundexian]
ENT1 % Inhibition (±SD) (ENT1; 20 μM): 95.39 (0.23) %

COc1ccc(CN=c2[nH]c(N3CCC[C@H]3CO)ncc2C(=O)NCc2ncccn2)cc1Cl [Avanafil]
inhibition at 20 µM (ENT1; [1]): 100%

COc1cccc(C(=O)COc2ccc(CC3SC(=O)NC3=O)cc2)c1 (centres unmarked) [Azemiglitazone]
ENT1 % Inhibition (±SD) (ENT1; 20 μM): 74.95 (4.00) %

COc1cc(C(=O)c2c(C)oc3c(O)c(OC)ccc23)cc(OC)c1OC [BNC105]
ENT1 % Inhibition (±SD) (ENT1; 20 μM): 97.87 (1.06) %

COC(=O)c1cc(OC)c2c(c1-c1c(CO)cc(OC)c3c1OCO3)OCO2 [Bicyclol]
inhibition at 20 µM (ENT1; [1]): 72.3%

COc1ccc(S(=O)(=O)Nc2cc(-c3c(O)ccc4ccccc34)c(O)c3ccccc23)cc1 [C188-9]
ENT1 % Inhibition (±SD) (ENT1; 20 μM): 72.99 (5.06) %

CCOc1ccc2c(-c3cccc(F)c3)nn(CC(=O)N(C)c3ccc4nc(C)oc4c3)c(=O)c2c1 [CFTR corrector 2]
inhibition at 20 µM (ENT1; [1]): 98%

COc1ccc(-c2c(Cl)ncn2-c2ccc(S(N)(=O)=O)cc2)cc1F [Cimicoxib]
inhibition at 20 µM (ENT1; [1]): 57.3%

COc1cc2c(cc1OC)-c1c/c(=N\c3c(C)cc(C)cc3C)n(CCNC(N)=O)c(=O)n1CC2 [Ensifentrine]
inhibition at 20 µM (ENT1; [1]): 98.2%

O=C(O[C@@H]1Cc2c(O)cc(O)cc2O[C@@H]1c1ccc(O)c(O)c1)c1cc(O)c(O)c(O)c1 [Epicatechin gallate]
IC50 (ENT1): 4 µM
inhibition at 20 µM (ENT1; read-out: ENT1 inhibition of uridine uptake (Spectrum screen, text)): ~85%

CO[C@H]1C[C@@H]2CC[C@@H](C)[C@@](O)(O2)C(=O)C(=O)N2CCCC[C@H]2C(=O)O[C@H]([C@H](C)C[C@@H]2CC[C@@H](OCCO)[C@H](OC)C2)CC(=O)[C@H](C)/C=C(\C)[C@@H](O)[C@@H](OC)C(=O)[C@H](C)C[C@H](C)/C=C/C=C/C=C/1C [Everolimus]
inhibition at 20 µM (ENT1; [1]): 92%

C#CCOc1ccc(/C=C/C(=O)Nc2ccccc2C(=O)O)cc1OC [FT011]
ENT1 % Inhibition (±SD) (ENT1; 20 μM): 54.94 (2.47) %

COc1cccc(-c2cc(F)c(Nc3ncccc3C(=O)O)c(F)c2)c1 [Farudodstat]
inhibition at 20 µM (ENT1; [1]): 86.8%

COc1cc(-c2cnc3cc(OCCN4CCOCC4)ccn23)cc2c1C(=O)N(CC(F)(F)F)CC2 [GLPG3970]
inhibition at 20 µM (ENT1; [1]): 68.1%

Cc1cccc(-c2nn3c(c2-c2ccnc4ccc(C(N)=O)cc24)CCC3)n1 [Galunisertib]
inhibition at 20 µM (ENT1; [1]): 56.2%

CO[C@H]1CC[C@H](n2c([C@@H]3CCCC(=O)N3c3ccc(F)c(F)c3)nc3cc(-c4c(C)noc4C)ccc32)CC1 [Inobrodib]
inhibition at 20 µM (ENT1; [1]): 91.4%

COC(=O)C1=C(C)NC(C)=C(C(=O)OC(C)C)C1c1cccc2nonc12 (centres unmarked) [Isradipine]
inhibition at 20 µM (ENT1; [1]): 92.7%

CCn1c(=O)c2c(nc(/C=C/c3ccc(OC)c(OC)c3)n2C)n(CC)c1=O [Istradefylline]
inhibition at 20 µM (ENT1; [1]): 96.1%

CNc1nc(-c2cccc(NC(=O)c3ccc(C(=O)OC)cc3)c2)c2cc(OC)c(OC)cc2n1 [Lotamilast]
inhibition at 20 µM (ENT1; [1]): 81.3%

Cc1ccc(C(=O)Nc2ccc(Oc3cc4cnn(C)c4cc3-c3cn[nH]c3)c(F)c2)c(=O)n1-c1ccc(F)cc1.Cl.Cl [Merestinib dihydrochloride]
ENT1 % Inhibition (±SD) (ENT1; 20 μM): 58.49 (4.13) %

CCCOc1ccc(S(=O)(=O)N2CCN(CCO)CC2)cc1-c1nc2c(CCC)cn(CC)c2c(=O)[nH]1 [Mirodenafil (dihydrochloride), Mirodenafil]
inhibition at 20 µM (ENT1; [1]): 79.3%

C#Cc1cccc(Nc2ncnc3cc(OC)c(OCCCN4CCOCC4)cc23)c1 [NRC-2694]
ENT1 % Inhibition (±SD) (ENT1; 20 μM): 67.27 (11.1) %

COC(=O)C1=C(C)NC(C)=C(C(=O)OCCN(C)Cc2ccccc2)C1c1cccc([N+](=O)[O-])c1 (centres unmarked) [Nicardipine (hydrochloride), Nicardipine]
inhibition at 20 µM (ENT1; [1]): 76.8%

COC(=O)C1=C(C)NC(C)=C(C(=O)OC)C1c1ccccc1[N+](=O)[O-] [Nifedipine]
inhibition at 20 µM (ENT1; [1]): 72.6%

CC(=O)O[C@]1(C(C)=O)CC[C@H]2[C@@H]3C=C(C)C4=CC(=O)CC[C@@H]4[C@H]3CC[C@@]21C [Nomegestrol acetate]
inhibition at 20 µM (ENT1; [1]): 82.9%

CCCCC1(CCCC)CN(c2ccccc2)c2cc(SC)c(OCC(=O)N[C@@H](C(=O)N[C@@H](CC)C(=O)O)c3ccc(O)cc3)cc2S(=O)(=O)N1 [Odevixibat]
inhibition at 20 µM (ENT1; [1]): 78.3%

COc1ccc2[nH]c([S+]([O-])Cc3ncc(C)c(OC)c3C)nc2c1 (centres unmarked) [Omeprazole (sodium), Omeprazole]
inhibition at 20 µM (ENT1; [1]): 51.3%

C=CC(=O)N1CCC(c2ccc(C(N)=O)c(-c3ccc(Oc4ccccc4)cc3)n2)CC1 [Orelabrutinib]
inhibition at 20 µM (ENT1; [1]): 87.5%

CCn1cnc2c(-c3ccc(F)c(-c4ccc(S(=O)(=O)CC)cc4OC)c3)cnnc21 [PF-06372865]
ENT1 % Inhibition (±SD) (ENT1; 20 μM): 100.45 (0.02) %

Oc1ccc(C2=Cc3ccc(O)cc3OC2)cc1 [Phenoxodiol]
inhibition at 20 µM (ENT1; [1]): 69.3%

COc1cc(/C=C/c2ccc(O)cc2)cc(OC)c1 [Pterostilbene]
inhibition at 20 µM (ENT1; [1]): 54.7%

COc1cccc(-c2nccc3[nH]c(=O)c(-c4noc(C)n4)cc23)c1 [Radequinil]
ENT1 % Inhibition (±SD) (ENT1; 20 μM): 98.17 (0.19) %

COc1cc([C@H]2Oc3cc([C@H]4Oc5cc(O)cc(O)c5C(=O)[C@@H]4O)ccc3O[C@@H]2CO)ccc1O [Silybin A]
inhibition at 20 µM (ENT1; [1]): 67.5%

COc1cc2c(Nc3ccc(Br)cc3F)ncnc2cc1OCC1CCN(C)CC1 [Vandetanib]
inhibition at 20 µM (ENT1; [1]): 50.3%

C/C=C/c1cc(OC)c(OC)cc1OC [alpha-Asarone]
ENT1 % Inhibition (±SD) (ENT1; 20 μM): 52.42 (3.92) %

CCc1oc2ccccc2c1C(=O)c1cc(Br)c(O)c(Br)c1 [benzbromarone]
IC50 (ENT1): 29.8 ± 2.1 µM
inhibition at 20 µM (ENT1; [2]): 79.6%
IC50 (ENT2): 262 ± 108 µM
inhibition at 20 µM (ENT2): 25.4%

Cc1ccc([C@@H]2O[C@H](CO)[C@@H](O)[C@H](O)[C@H]2O)cc1Cc1ccc(-c2ccc(F)cc2)s1 [canagliflozin]
ENT1 % Inhibition (20μM) (ENT1; 20 μM compound, 5 min [3H]uridine uptake, WT HeLa cells): 74.5%
IC50 (ENT1; read-out: ENT1 IC50 (μM) ± SD, 5 min uptake of ~10 nM [3H]uridine, WT HeLa cells): 24 ± 5.1 µM
ENT2 % Inhibition (20μM) (ENT2): 56.5%

O=c1[nH]c2ccccc2n1CCCN1CCC(n2c(=O)[nH]c3cc(Cl)ccc32)CC1 [domperidone]
inhibition at 20 µM (ENT1; [2]): 24.4%
IC50 (ENT2): 0.16 ± 0.04 µM
inhibition at 20 µM (ENT2): 64.3%

CCOC(=O)c1ncn2c1CN(C)C(=O)c1cc(F)ccc1-2 [flumazenil]
IC50 (ENT1): 121 ± 0.7 µM
inhibition at 20 µM (ENT1; [2]): 20%
IC50 (ENT2): 3.82 ± 0.3 µM
inhibition at 20 µM (ENT2): 85.1%

COc1cc2ncnc(Nc3ccc(F)c(Cl)c3)c2cc1OCCCN1CCOCC1 [gefitinib]
inhibition at 20 µM (ENT2): 54.6%

COc1cc(O)cc(O)c1C(=O)c1ccccc1 [isocotoin]
ENT1 inhibition of uridine uptake (Spectrum screen, text) (ENT1; 20 μM, Spectrum Collection screen (Table S1)): ~ 65%
IC50 (ENT1; read-out: predicted IC50 for ENT1, predicted from inhibition at 20 μM): 12 µM

NC[C@H]1O[C@H](O[C@H]2[C@H](O)[C@@H](O[C@H]3O[C@H](CO)[C@@H](O)[C@H](N)[C@H]3O)[C@H](N)C[C@@H]2N)[C@H](O)[C@@H](O)[C@@H]1O [kanamycin]
ENT1 % Inhibition (20μM) (ENT1): 43.7%
ENT2 % Inhibition (20μM) (ENT2): 11.7%

CCCCc1nc(Cl)c(CO)n1Cc1ccc(-c2ccccc2-c2nn[nH]n2)cc1 [losartan]
IC50 (ENT2): 172 ± 60.2 µM
inhibition at 20 µM (ENT2): 33%

CC(=O)[C@H]1CC[C@H]2[C@@H]3C[C@H](C)C4=CC(=O)CC[C@]4(C)[C@H]3[C@@H](O)C[C@]12C [medrysone]
IC50 (ENT1): 4.44 ± 0.9 µM
inhibition at 20 µM (ENT1; [2]): 95.1%
IC50 (ENT2): 210 ± 89.2 µM
inhibition at 20 µM (ENT2): 56.3%
